How the values were obtained:
[1] = target: T1, human phosphodiesterase 5 (PDE 5) (Homo sapiens, UniProt O76074); assay: Inhibition of human phosphodiesterase 5 (PDE 5); assay type: biochemical; conditions: PDE 5 preparation from human platelets; in some cases means of individual determinations
T1 construct: PDE 5 preparations are obtained from human platelets by disruption; from tissue; host or cells: human platelets
Protocol: B-3. Inhibition of Human Phosphodiesterase 5 (PDE 5)
PDE 5 preparations are obtained from human platelets by disruption (Microfluidizer®, 800 bar, 3 passes), followed by centrifugation (75 000 g, 60 min, 4° C.) and ion exchange chromatography of the supernatant on a Mono Q 10/10 column (linear sodium chloride gradient, elution with a 0.2-0.3M solution of sodium chloride in buffer (20 mM Hepes pH 7.2, 2 mM magnesium chloride). Fractions having PDE 5 activity are combined (PDE 5 preparation) and stored at −80° C.
To determine their in vitro action on human PDE 5, the test substances are dissolved in 100% DMSO and serially diluted. Typically, dilution series (1:3) from 200 μM to 0.091 μM are prepared (resulting final concentrations in the test: 4 μM to 0.0018 μM). In each case 2 μl of the diluted substance solutions are placed into the wells of microtitre plates (Isoplate-96/200W; Perkin Elmer). Subsequently, 50 μl of a dilution of the above-described PDE 5 preparation are added. The dilution of the PDE 5 preparation is chosen such that during the later incubation less than 70% of the substrate are converted (typical dilution: 1:100; dilution buffer: 50 mM tris/hydrochloric acid pH 7.5, 8.3 mM magnesium chloride, 1.7 mM EDTA, 0.2% BSA). The substrate, [8-^3H] cyclic guanosine-3′,5′-monophosphate (1 μCi/μl; Perkin Elmer), is diluted 1:2000 with assay buffer (50 mM tris/hydrochloric acid pH 7.5, 8.3 mM magnesium chloride, 1.7 mM EDTA) to a concentration of 0.0005 μCi/μl. By addition of 50 μl (0.025 μCi) of the diluted substrate, the enzyme reaction is finally started. The test mixtures are incubated at room temperature for 60 min and the reaction is stopped by adding 25 μl of a suspension of 18 mg/ml yttrium scintillation proximity beads in water (phosphodiesterase beads for SPA assays, RPNQ 0150, Perkin Elmer). The microtitre plates are sealed with a film and left to stand at room temperature for 60 min. Subsequently, the plates are analysed for 30 s per well in a Microbeta scintillation counter (Perkin Elmer). IC50 values are determined using the graphic plot of the substance concentration against percentage PDE 5 inhibition.

[2] = target: T2, recombinant guanylate cyclase reporter cell line (Rattus norvegicus, UniProt P19686+P20595); assay: Effect on a recombinant guanylate cyclase reporter cell line; assay type: cell-based; conditions: MEC = minimum effective concentration; in some cases means of individual determinations
T2 construct: expressed in transfected cells
T2 sequence (P19686 1-690): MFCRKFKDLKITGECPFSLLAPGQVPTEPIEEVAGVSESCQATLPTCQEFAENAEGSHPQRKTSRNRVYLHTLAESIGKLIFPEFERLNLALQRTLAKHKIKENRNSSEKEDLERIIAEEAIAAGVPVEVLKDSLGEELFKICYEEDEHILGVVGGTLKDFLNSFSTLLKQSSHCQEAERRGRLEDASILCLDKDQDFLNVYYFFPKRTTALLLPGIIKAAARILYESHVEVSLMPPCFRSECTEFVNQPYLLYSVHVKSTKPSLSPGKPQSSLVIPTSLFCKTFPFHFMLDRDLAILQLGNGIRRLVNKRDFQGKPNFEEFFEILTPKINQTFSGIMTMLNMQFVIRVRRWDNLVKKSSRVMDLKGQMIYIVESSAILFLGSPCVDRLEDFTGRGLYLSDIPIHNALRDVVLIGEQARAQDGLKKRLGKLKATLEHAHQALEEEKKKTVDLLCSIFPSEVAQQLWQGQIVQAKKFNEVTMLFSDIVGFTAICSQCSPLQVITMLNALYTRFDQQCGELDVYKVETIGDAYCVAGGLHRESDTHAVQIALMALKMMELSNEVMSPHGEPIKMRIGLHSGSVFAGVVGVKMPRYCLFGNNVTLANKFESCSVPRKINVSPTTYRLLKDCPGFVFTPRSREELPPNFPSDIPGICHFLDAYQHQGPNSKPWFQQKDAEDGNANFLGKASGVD
T2 sequence (P20595 1-619): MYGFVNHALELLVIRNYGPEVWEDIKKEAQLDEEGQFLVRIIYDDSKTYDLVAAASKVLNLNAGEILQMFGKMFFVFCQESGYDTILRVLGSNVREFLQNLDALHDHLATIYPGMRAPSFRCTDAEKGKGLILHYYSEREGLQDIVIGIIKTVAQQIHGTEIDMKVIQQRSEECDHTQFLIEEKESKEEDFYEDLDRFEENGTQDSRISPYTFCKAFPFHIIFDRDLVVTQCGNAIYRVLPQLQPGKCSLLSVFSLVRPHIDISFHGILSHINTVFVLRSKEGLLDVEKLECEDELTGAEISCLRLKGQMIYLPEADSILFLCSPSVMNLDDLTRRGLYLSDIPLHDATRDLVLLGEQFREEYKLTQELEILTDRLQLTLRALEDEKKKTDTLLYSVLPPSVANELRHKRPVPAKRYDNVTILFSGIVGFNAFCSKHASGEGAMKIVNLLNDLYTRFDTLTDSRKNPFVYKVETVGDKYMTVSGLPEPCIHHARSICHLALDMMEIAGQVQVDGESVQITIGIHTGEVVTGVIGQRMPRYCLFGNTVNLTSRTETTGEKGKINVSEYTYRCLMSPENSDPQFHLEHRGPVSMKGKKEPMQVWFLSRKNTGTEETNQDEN
Protocol: B-2. Effect on a Recombinant Guanylate Cyclase Reporter Cell Line
The cellular activity of the compounds of the invention is determined using a recombinant guanylate cyclase reporter cell line, as described in F. Wunder et al., Anal. Biochem. 2005, 339, 104-112. Representative values (MEC=minimum effective concentration) for the compounds of the invention are shown in the table below (Table 1B; in some cases as means of individual determinations): […]

Compound	IC50 [1] [nM]	MEC [2] [µM]
Cc1nc2c(cc1F)c(-c1nc3c(c(C(N)=O)n1)C(C)(C(F)(F)F)C(=O)N3)nn2Cc1cccc(F)c1F (single isomer, unassigned; ent-2) [Example 10, ent-2-[1-(2,3-Difluorobenzyl)-5-fluoro-6-methyl-1H-pyrazolo[3,4-b]pyridin-3-yl]-5-methyl-6-oxo-5-(trifluoromethyl)-6,7-dihydro-5H-pyrrolo[2,3-d]pyrimidine-4-carboxamide (enantiomer A)]	110	0.3
Cc1nc2c(cc1F)c(-c1nc3c(c(C(N)=O)n1)C(C)(C(F)(F)F)C(=O)N3)nn2Cc1cccc(F)c1F (single isomer, unassigned; ent-2) [Example 11, ent-2-[1-(2,3-Difluorobenzyl)-5-fluoro-6-methyl-1H-pyrazolo[3,4-b]pyridin-3-yl]-5-methyl-6-oxo-5-(trifluoromethyl)-6,7-dihydro-5H-pyrrolo[2,3-d]pyrimidine-4-carboxamide (enantiomer B)]	91	0.1
Cc1nc2c(cc1F)c(-c1nc3c(c(C(N)=O)n1)C(C)(C(F)(F)F)C(=O)N3)nn2Cc1ccccc1F (single isomer, unassigned; ent-2) [Example 13, ent-2-[5-fluoro-1-(2-fluorobenzyl)-6-methyl-1H-pyrazolo[3,4-b]pyridin-3-yl]-5-methyl-6-oxo-5-(trifluoromethyl)-6,7-dihydro-5H-pyrrolo[2,3-d]pyrimidine-4-carboxamide (enantiomer A)]	600	0.1
Cc1nc2c(cc1F)c(-c1nc3c(c(C(N)=O)n1)C(C)(C(F)(F)F)C(=O)N3)nn2Cc1ccccc1F (single isomer, unassigned; ent-2) [Example 14, ent-2-[5-fluoro-1-(2-fluorobenzyl)-6-methyl-1H-pyrazolo[3,4-b]pyridin-3-yl]-5-methyl-6-oxo-5-(trifluoromethyl)-6,7-dihydro-5H-pyrrolo[2,3-d]pyrimidine-4-carboxamide (enantiomer B)]	130	0.03
Cc1nc2c(cc1F)c(-c1nc3c(c(C(N)=O)n1)C(C)(C(F)(F)F)C(=O)N3)nn2Cc1c(F)ccc(F)c1F (single isomer, unassigned; ent-2) [Example 16, ent-2-[5-Fluoro-6-methyl-1-(2,3,6-trifluorobenzyl)-1H-pyrazolo[3,4-b]pyridin-3-yl]-5-methyl-6-oxo-5-(trifluoromethyl)-6,7-dihydro-5H-pyrrolo[2,3-d]pyrimidine-4-carboxamide (enantiomer A)]	170	0.17
Cc1nc2c(cc1F)c(-c1nc3c(c(C(N)=O)n1)C(C)(C(F)(F)F)C(=O)N3)nn2Cc1c(F)ccc(F)c1F (single isomer, unassigned; ent-2) [Example 17, ent-2-[5-Fluoro-6-methyl-1-(2,3,6-trifluorobenzyl)-1H-pyrazolo[3,4-b]pyridin-3-yl]-5-methyl-6-oxo-5-(trifluoromethyl)-6,7-dihydro-5H-pyrrolo[2,3-d]pyrimidine-4-carboxamide (enantiomer B)]	280	0.03
Cc1nc2c(cc1F)c(-c1nc3c(c(C(N)=O)n1)C(C)(C(F)(F)F)C(=O)N3)nn2Cc1ncccc1F (single isomer, unassigned; ent-2) [Example 19, ent-2-{5-Fluoro-1-[(3-fluoropyridin-2-yl)methyl]-6-methyl-1H-pyrazolo[3,4-b]pyridin-3-yl}-5-methyl-6-oxo-5-(trifluoromethyl)-6,7-dihydro-5H-pyrrolo[2,3-d]pyrimidine-4-carboxamide (enantiomer A)]	220	10
Cc1nc2c(cc1F)c(-c1nc3c(c(C(N)=O)n1)C(C)(C(F)(F)F)C(=O)N3)nn2Cc1ncccc1F (single isomer, unassigned; ent-2) [Example 20, ent-2-{5-Fluoro-1-[(3-fluoropyridin-2-yl)methyl]-6-methyl-1H-pyrazolo[3,4-b]pyridin-3-yl}-5-methyl-6-oxo-5-(trifluoromethyl)-6,7-dihydro-5H-pyrrolo[2,3-d]pyrimidine-4-carboxamide (enantiomer B)]	190	1
CC1(C(F)(F)F)C(=O)Nc2nc(-c3nn(Cc4ncccc4F)c4ncc(F)cc34)nc(C(N)=O)c21 (single isomer, unassigned; ent-2) [Example 22, ent-2-{5-Fluoro-1-[(3-fluoropyridin-2-yl)methyl]-1H-pyrazolo[3,4-b]pyridin-3-yl}-5-methyl-6-oxo-5-(trifluoromethyl)-6,7-dihydro-5H-pyrrolo[2,3-d]pyrimidine-4-carboxamide (enantiomer A)]	170	2
CC1(C(F)(F)F)C(=O)Nc2nc(-c3nn(Cc4ncccc4F)c4ncc(F)cc34)nc(C(N)=O)c21 (single isomer, unassigned; ent-2) [Example 23, ent-2-{5-Fluoro-1-[(3-fluoropyridin-2-yl)methyl]-1H-pyrazolo[3,4-b]pyridin-3-yl}-5-methyl-6-oxo-5-(trifluoromethyl)-6,7-dihydro-5H-pyrrolo[2,3-d]pyrimidine-4-carboxamide (enantiomer B)]	1300	6.5
CC1(C)C(=O)Nc2nc(-c3nn(Cc4ccccc4F)c4ncccc34)nc(C(N)=O)c21 [Example 1, 2-[1-(2-Fluorobenzyl)-1H-pyrazolo[3,4-b]pyridin-3-yl]-5,5-dimethyl-6-oxo-6,7-dihydro-5H-pyrrolo[2,3-d]pyrimidine-4-carboxamide]	20	0.065
CC1(C)C(=O)Nc2nc(-c3nn(Cc4ccccc4F)c4ncc(F)cc34)nc(C(N)=O)c21 [Example 2, 2-[5-Fluoro-1-(2-fluorobenzyl)-1H-pyrazolo[3,4-b]pyridin-3-yl]-5,5-dimethyl-6-oxo-6,7-dihydro-5H-pyrrolo[2,3-d]pyrimidine-4-carboxamide]	13	0.03
CC1(C)C(=O)Nc2nc(-c3nn(Cc4ccccc4F)c4cc(Cl)ccc34)nc(C(N)=O)c21 [Example 3, 2-[6-Chloro-1-(2-fluorobenzyl)-1H-indazol-3-yl]-5,5-dimethyl-6-oxo-6,7-dihydro-5H-pyrrolo[2,3-d]pyrimidine-4-carboxamide]	100	0.03

— patent US20170233413A1, “SUBSTITUTED ANNULATED PYRIMIDINES AND USE THEREOF” (Bayer Pharma Aktiengesellschaft, priority 2014, published 2017)
